The structures appear in SMILES notation.

This assay concerns the target T1, Human Recombinant Matriptase 2 (Homo sapiens, UniProt Q8IU80).
T1 construct: made in house
T1 sequence (Q8IU80 1-811): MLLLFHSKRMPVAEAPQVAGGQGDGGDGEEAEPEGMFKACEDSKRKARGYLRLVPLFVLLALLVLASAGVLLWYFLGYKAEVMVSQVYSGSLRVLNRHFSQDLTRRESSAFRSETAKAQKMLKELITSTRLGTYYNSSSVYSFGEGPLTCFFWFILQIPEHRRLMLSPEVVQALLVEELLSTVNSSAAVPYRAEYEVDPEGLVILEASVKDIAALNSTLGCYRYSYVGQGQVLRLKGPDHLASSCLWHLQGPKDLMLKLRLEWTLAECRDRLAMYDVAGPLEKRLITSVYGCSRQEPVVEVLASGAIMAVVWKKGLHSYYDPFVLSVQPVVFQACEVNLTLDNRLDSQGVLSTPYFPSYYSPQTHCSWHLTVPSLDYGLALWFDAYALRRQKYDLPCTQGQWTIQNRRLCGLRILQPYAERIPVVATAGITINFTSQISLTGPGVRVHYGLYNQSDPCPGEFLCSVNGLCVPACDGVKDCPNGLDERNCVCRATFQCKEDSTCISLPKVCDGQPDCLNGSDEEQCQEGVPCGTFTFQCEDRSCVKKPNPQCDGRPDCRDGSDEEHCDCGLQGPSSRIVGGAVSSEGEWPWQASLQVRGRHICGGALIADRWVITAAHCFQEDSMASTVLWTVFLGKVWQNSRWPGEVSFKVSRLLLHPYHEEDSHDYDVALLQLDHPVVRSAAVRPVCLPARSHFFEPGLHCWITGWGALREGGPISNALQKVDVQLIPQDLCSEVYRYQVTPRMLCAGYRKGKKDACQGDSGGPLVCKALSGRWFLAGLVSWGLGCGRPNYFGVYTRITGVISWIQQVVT
Briefly: Matriptase 2 inhibition, fluorescence based assay (Method I). It counts as biochemical. The following applies: Table A; Ki of Matriptase-2 given as class symbols; read-out: Mat-2 Ki. The gist of the method: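 Fluorogenic readout (Ex 360/Em 480 nm) taken 60 min after adding 62 μM Boc-Gln-Ala-Arg-AMC, following 30-min enzyme–compound preincubation at 25 °C. Conditions: 3.5 nM in-house enzyme, pH 7.5 Tris/NaCl/gelatin buffer, 1% DMSO; percent inhibition versus concentration fitted by variable-slope sigmoidal regression.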
In the case of `CNCCOC(=O)c1cc2ccc(CN)nc2n1Cc1cc(NS(=O)(=O)CC[C@@H]2CCCN2)cc2ccccc12` [Compound 283, 2-(methylamino)ethyl 6-(aminomethyl)-1-[(3-{2-[(2S)-pyrrolidin-2-yl]-ethanesulfonamido}-naphthalen-1-yl)methyl]-1H-pyrrolo[2,3-b]pyr-idine-2-carboxylate], the Ki (usually a measure of affinity in units of concentration, obtained from inhibition or displacement) lay in the range of 500 to 3000 nM. In the case of `CN(C)CCOC(=O)c1cc2ccc(CN)nc2n1Cc1cc(NS(=O)(=O)CC[C@@H]2CCCN2)cc2ccccc12` [Compound 284, 2-(dimethylamino)ethyl 6-(aminomethyl)-1-[(3-{2-[(2S)-pyrrolidin-2-yl]ethanesulfonamido}-naphthalen-1-yl)methyl]-1H-pyrrolo[2,3-b]pyr-idine-2-carboxylate] it was 500 to 3000 nM. As for `NCc1ccc2cc(C(=O)O)n(Cc3cc(NS(=O)(=O)Cc4ccccc4)cc4c3CCCC4)c2n1` [Compound 285, 6-(aminomethyl)-1-((3-((phenylmethyl)sulfonamido)-5,6,7,8-tetrahydronaphthalen-1-yl)methyl)-1H-pyrrolo[2,3-b]pyridine-2-carboxylic acid], the figure is 100 to 500 nM; as for `CN1CCC(COC(=O)c2cc3ccc(CN)nc3n2Cc2cc(NS(=O)(=O)Cc3ccccc3)cc3c2CCCC3)CC1` [Compound 286, (1-methylpiperidin-4-yl)methyl 6-(aminomethyl)-1-((3-((phenylmethyl)sulfonamido)-5,6,7,8-tetrahydronaphthalen-1-yl)methyl)-1H-pyrrolo[2,3-b]pyridine-2-carboxylate], at most 100 nM; as for `NCc1ccc2cc(C(=O)O)n(Cc3cc(NS(=O)(=O)Cc4ccsc4)cc4c3CCCC4)c2n1` [Compound 287, 6-(aminomethyl)-1-({3-[(thiophen-3-yl)methane-sulfonamido]-5,6,7,8-tetrahydronaphthalen-1-yl}methyl)-1H-pyrrolo-[2,3-b]pyridine-2-carbox-ylic acid], 100 to 500 nM. In the case of `COCCN1CCN(C(=O)Nc2cc(Cn3c(C(=O)O)cc4ccc(CN)nc43)c3ccccc3c2)CC1` [Compound 288, 6-(aminomethyl)-1-((3-(4-(2-methoxyethyl)piperazine-1-carboxamido)naphthalen-1-yl)methyl)-1H-pyrrolo[2,3-b]pyridine-2-carboxylic acid], the Ki lay in the range of 100 to 500 nM. `CN1CCC[C@H]1CCOC(=O)Nc1cc(Cn2c(C(=O)O)cc3ccc(CN)nc32)c2ccccc2c1` [Compound 289, (S)-6-(aminomethyl)-1-((3-(((2-(1-methylpyrrolidin-2-yl)ethoxy)carbonyl)amino)naphthalen-1-yl)methyl)-1H-pyrrolo[2,3-b]pyridine-2-carboxylic acid]: the Ki fell in the range of 100 to 500 nM. As to `CCOC(=O)c1cc2ccc(CN)nc2n1Cc1cc(NS(=O)(=O)Cc2ccsc2)cc2ccccc12` [Compound 291], the Ki fell in the range of 100 to 500 nM.

Consider `NCc1ccc2cc(C(=O)O)n(Cc3cc(NC(=O)NCC4CCN(S(=O)(=O)C5CC5)CC4)cc4ccccc34)c2n1` [Compound 292, 6-(aminomethyl)-1-({3-[({[1-(cyclopropanesul-fonyl)piperidin-4-yl]-methyl}carbamoyl)-amino]naphthalen-1-yl}-methyl)-1H-pyrrolo[2,3-b]pyridine-2-carboxylic acid], for which the Ki is 100 to 500 nM. Consider `CS(=O)(=O)N1CCC(CNC(=O)Nc2cc(Cn3c(C(=O)O)cc4ccc(CN)nc43)c3ccccc3c2)CC1` [Compound 293, 6-(aminomethyl)-1-{[3-({[(1-methanesulfonyl-piperidin-4-yl)methyl]-carbamoyl}amino)naph-thalen-1-yl]methyl}-1H-pyrrolo[2,3-b]pyridine-2-carboxylic acid], for which the Ki lay in the range of 100 to 500 nM. In the case of `CC(C)(C)S(=O)(=O)N1CCC(CNC(=O)Nc2cc(Cn3c(C(=O)O)cc4ccc(CN)nc43)c3ccccc3c2)CC1` [Compound 294, 6-(aminomethyl)-1-({3-[({[1-(2-methylpropane-2-sulfonyl)piperidin-4-yl]methyl}carbamoyl)-amino]naphthalen-1-yl}-methyl)-1H-pyrrolo[2,3-b]pyridine-2-carboxylic acid], the Ki was 100 to 500 nM.

As to `C[C@@H]1CN(C(=O)Nc2cc(Cn3c(C(=O)O)cc4ccc(CN)nc43)c3ccccc3c2)CCN1` [Compound 295, 6-(aminomethyl)-1-[(3-{[(3R)-3-methylpipera-zine-1-carbonyl]amino}-naphthalen-1-yl)methyl]-1H-pyrrolo[2,3-b]pyr-idine-2-carboxylic acid], the Ki lay in the range of 500 to 3000 nM. As to `CC1(C)CCN(C(=O)Nc2cc(Cn3c(C(=O)O)cc4ccc(CN)nc43)c3ccccc3c2)CC1` [Compound 296, 6-(aminomethyl)-1-({3-[(4,4-dimethylpiperidine-1-carbonyl)amino]naph-thalen-1-yl}methyl)-1H-pyrrolo[2,3-b]pyridine-2-carboxylic acid], the Ki lay in the range of 500 to 3000 nM. As for `NCc1ccc2cc(C(=O)O)n(Cc3cc(NC(=O)N4CC5CCCC5C4)cc4ccccc34)c2n1` (stereo not drawn) [Compound 297, 6-(aminomethyl)-1-{[3-({octahydrocyclopenta-[c]pyrrole-2-carbonyl}-amino)naphthalen-1-yl]-methyl}-1H-pyrrolo[2,3-b]pyridine-2-carboxylic acid], the Ki lay in the range of 500 to 3000 nM.

With `NCc1ccc2cc(C(=O)O)n(Cc3cc(NC(=O)N4CCC(C(F)(F)F)CC4)cc4ccccc34)c2n1` [Compound 298, 6-(aminomethyl)-1-[(3-{[4-(trifluoromethyl)-piperidine-1-carbonyl]-amino}naphthalen-1-yl)-methyl]-1H-pyrrolo[2,3-b]pyridine-2-carboxylic acid], the Ki lay within 500 to 3000 nM. As to `CC(C)[C@H]1CCCN1C(=O)Nc1cc(Cn2c(C(=O)O)cc3ccc(CN)nc32)c2ccccc2c1` [Compound 299, 6-(aminomethyl)-1-[(3-{[(2R)-2-(propan-2-yl)-pyrrolidine-1-carbonyl]-amino}naphthalen-1-yl)-methyl]-1H-pyrrolo[2,3-b]pyridine-2-carboxylic acid], the Ki is 500 to 3000 nM. Take `CC1(O)CCN(C(=O)Nc2cc(Cn3c(C(=O)O)cc4ccc(CN)nc43)c3ccccc3c2)CC1` [Compound 300]: the Ki was in the range of 500 to 3000 nM.

For the molecule `C[C@@H]1C[C@H](C)CN(C(=O)Nc2cc(Cn3c(C(=O)O)cc4ccc(CN)nc43)c3ccccc3c2)C1` [Compound 301, 6-(aminomethyl)-1-[(3-{[(3R,5S)-3,5-dimeth-ylpiperidine-1-carbonyl]-amino}naphthalen-1-yl)-methyl]-1H-pyrrolo[2,3-b]pyridine-2-carboxylic acid], the Ki is 500 to 3000 nM.

Consider `C[C@@H]1CN(C(=O)Nc2cc(Cn3c(C(=O)O)cc4ccc(CN)nc43)c3ccccc3c2)C[C@H](C)N1` [Compound 304, 6-(aminomethyl)-1-[(3-{[(3R,5S)-3,5-dimeth-ylpiperazine-1-carbon-yl]amino}naphthalen-1-yl)methyl]-1H-pyrrolo-[2,3-b]pyridine-2-car-boxylic acid], for which the inhibitory constant (Ki) was 500 to 3000 nM. In the case of `C[C@H]1CN(C(=O)Nc2cc(Cn3c(C(=O)O)cc4ccc(CN)nc43)c3ccccc3c2)CCN1` [Compound 305] it was 500 to 3000 nM; in that of `COC[C@H]1CCCN1C(=O)Nc1cc(Cn2c(C(=O)O)cc3ccc(CN)nc32)c2ccccc2c1` [Compound 307], 500 to 3000 nM.
